Test in all cases: inhibition of tumour cell growth, NCI panel, 48 h
Assay [1] deals with T-47D breast.
Assay [2] relates to LXFL 529 NSCLC.
In assay [3] the test system is DLD-1 colon.
Assay [4] concerns KM20L2 colon.
For assay [5], the system named is M19-MEL melanoma.
Assay [6] has as its system DMS 273 small cell lung.
In assay [7] the test system is SNB-78 CNS.
The subject of assay [8] is MDA-N.

Several values for one entry are separate records, joined by “and”; a condition that tells them apart may be missing. Equal values may be shown once.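 Cells were grown in 96-well plates and exposed to each compound for 48 hours at five concentrations; endpoints were interpolated linearly between bracketing concentrations, or set to the highest concentration if not reached. Abbreviation: GI50, concentration required for 50% inhibition of growth. The concentration for full growth arrest is given as TGI.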

Turning to `CCCCNC(=O)Oc1ccc(/C(=C(/CC)Cc2ccccc2)c2ccc(OCCN3CCCCCC3)cc2)cc1`, in assay [1], the GI50 is 14.5 µM and the TGI came out at 36.9 µM.

On to `CC(=O)c1cccc(-c2cccc(-c3ccn(CCN4CCOCC4)n3)c2)c1`, for which, in assay [1], the GI50 is 17.4 µM and the TGI is > 20 µM.

With `O=C(O)c1cccc(/C=C/c2ccccc2)c1`, the TGI in assay [1] was > 100 µM.

Turning to `O=C(Nc1ccc(Br)cc1)Nc1nn(C(=O)Nc2ccc(Br)cc2)c2ccccc12`, in assay [1], the GI50 was 28.1 µM and the TGI was > 93 µM.

Regarding `C/C(=C(/c1ccc(O)cc1)c1ccc(Cl)cc1)c1ccccc1`, in assay [1], the GI50 is 0.762 µM and the TGI amounted to 3.22 µM.

For the molecule `CCOC(=O)C1=C(Nc2ccc(Cl)c(Cl)c2)OC/C1=N\NC(=O)Cc1ccccc1`, the TGI in assay [2], in assay [3], in assay [4], in assay [5], in assay [6] and in assay [7] was > 100 µM each time.

Turning to `C[C@]12CC[C@@H](OC(=O)N(CCCl)N=O)C[C@@H]1CC[C@@H]1[C@@H]2CC[C@]2(C)C(=O)CC[C@@H]12`, in assay [1], the GI50 is 2.82 µM and the TGI came out at 55.9 µM.

On to `CCCCCCNC(=O)Oc1ccc(/C(=C(/C)Cc2ccc(OC)cc2)c2ccc(OCCN(C)C)cc2)cc1`, for which, in assay [1], the GI50 is 1.41 µM and the TGI was 7.12 µM.

In the case of `Oc1c(Cl)cc(Cl)cc1Sc1cc(Cl)cc(Cl)c1O`, in assay [1], the GI50 was 3.23 µM and 2.45 µM; the TGI is 18 µM and 7.78 µM.

Take `COc1ccc(N2C(=O)C3c4[nH]c5ccccc5c4C4CCCCCCC4C3C2=O)cc1` (stereo not drawn): the TGI was 17.1 µM in assay [2]; > 43.4 µM in assay [3]; > 100 µM in assay [4]; > 80.3 µM in assay [5]; 18.6 µM in assay [6]; > 100 µM in assay [7].

Turning to `COC(=O)c1ccc2c(c1)C(=O)c1c-2n(CCCN)c(=O)c2cc(OC)c(OC)cc12`, in assay [1], the GI50 was 18.9 µM and the TGI was 44.9 µM.

With `CC(=O)c1cc(-c2ccccc2N)n(-c2ccc3c(c2)OCO3)c1C`, in assay [1], the GI50 was 0.852 µM and the TGI was > 100 µM.

`CCCCCCCCCCCCCC(=O)NCC(OCC)OCC`: the TGI in assay [2], in assay [3], in assay [4], in assay [5], in assay [6] and in assay [7] was > 100 µM throughout.

With `O=C1CCN2CCC(=O)c3c2c(cc2ccccc32)N1`, the TGI in assay [2], in assay [3], in assay [4], in assay [5], in assay [6] and in assay [7] was > 100 µM each time.

`CNCCNc1nc2ccccc2c2c(=O)c3cc(OC)ccc3sc12`: in assay [1], the GI50 is 1.71 µM and the TGI came out at 3.66 µM.

In the case of `CN1c2ccccc2S(=O)(=O)n2c(CCc3ccccc3)nnc21`, the TGI in assay [8] and in assay [1] was > 100 µM in each case.

As to `Cc1nn(CNc2ccccc2C(F)(F)F)c(=S)n1/N=C/c1ccc(F)cc1`, in assay [1], the GI50 was > 100 µM and the TGI was > 100 µM.

Turning to `N=c1ccc2nc3c(cc(N)c4ccccc43)oc-2c1`, in assay [1], the GI50 was 1.09 µM and the TGI is 2.79 µM.

As for `Cc1ccc2sc3ccc(N)cc3c(=O)c2c1`, the TGI is > 100 µM in assay [8] and 78.5 µM in assay [1].

Turning to `CC1=NOC(=O)C1N=Nc1ccc(Br)c(C)c1` (stereo not drawn), the TGI was 29.1 µM in assay [2]; 63.1 µM in assay [3]; > 100 µM in assay [4]; 35.6 µM in assay [5]; 45.6 µM in assay [6]; 62.8 µM in assay [7].

Take `COC(=O)[C@]1(C)C(OC)=CC(=O)C2C1[C@H]1CCC[C@@H]21` (stereo partly drawn): the TGI in assay [2], in assay [3], in assay [4], in assay [5] and in assay [7] was > 100 µM in each case.

As for `COc1ccc([C@@H](O)c2cc(-c3ncnc4cc(N5CCOCC5)ccc34)c(F)cc2Cl)nn1`, in assay [1], the GI50 is 0.228 µM and the TGI was found to be 1.44 µM.

As for `COC(=O)C(=O)C(C(=O)C(N)=O)c1nc2ccc(C(=O)c3ccccc3)cc2[nH]c1=O` (stereo not drawn), the TGI in assay [8] and in assay [1] was > 100 µM each time.

As for `Cc1cccc(N=C2NC(=O)C(CC(=O)Nc3ccc(C)cc3C)S2)c1` (stereo not drawn), the TGI in assay [2], in assay [3], in assay [4], in assay [5], in assay [6] and in assay [7] was > 100 µM throughout.

Take `O=C(CSc1nc(-c2ccccc2)c(-c2ccccc2)[nH]1)NNC(=S)Nc1ccccc1`: the TGI in assay [2], in assay [3], in assay [4], in assay [5], in assay [6] and in assay [7] was > 100 µM each time.

On to `COc1cc2c3c(c1OC)C1(C=CC(=O)C=C1)CC3NCC2` (stereo not drawn), for which the TGI in assay [8] and in assay [1] was > 100 µM each time.

With `Oc1c(CN2CCCC2)cc(CSCc2ccccc2)c2cccnc12`, in assay [1], the GI50 was 1.15 µM and the TGI came to 8.26 µM.

For `Clc1ccc(-c2c(C3=NCCN3)nnn2-c2ccccc2)cc1`, the TGI in assay [2], in assay [3], in assay [4], in assay [5], in assay [6] and in assay [7] was > 100 µM throughout.

In the case of `CCC[CH2][Sn]1([CH2]CCC)[O]C(=O)c2ccc(N)cc2[O]1`, the GI50 in assay [2] is 0.0365 µM; in assay [4], 1.57 µM; in assay [6], 1.04 µM; in assay [8], 0.668 µM; in assay [7] it was 0.0801 µM. Besides, the TGI in assay [2] worked out at 0.248 µM; in assay [4], 3.17 µM; in assay [5], 1.66 µM; in assay [6] it was 2.56 µM; in assay [8] it was 1.97 µM; in assay [7] it was 1.18 µM.

On to `S=P(N1CCCC1)(N1CC1)N1CC1`, for which the TGI in assay [3], in assay [4], in assay [5], in assay [6] and in assay [7] was > 100 µM throughout.

For `Cc1cnc(Nc2ccc(OCCN3CCCC3)cc2)nc1Nc1cccc(S(=O)(=O)NC(C)(C)C)c1`, in assay [1], the GI50 is 2.13 µM and 2.11 µM; the TGI was 24.2 µM and > 10 µM.

For the molecule `N#Cc1c(C[n+]2ccccc2)c2ccccc2oc1=O`, the TGI in assay [2], in assay [3], in assay [4], in assay [5], in assay [6] and in assay [7] was > 100 µM throughout.

For the molecule `C/C=C(/C)c1cnc(CC(C)C)c(=O)[nH]1`, the TGI in assay [8] and in assay [1] was > 100 µM each time.

On to `COc1nc(C)cc2c(=O)n(-c3ccccc3)n(CC(O)CN3CCN(c4ccc(Cl)cc4)CC3)c(=O)c12` (stereo not drawn), for which, in assay [1], the GI50 was > 50 µM and the TGI was > 50 µM.

Take `CCCCN(CC)c1ncnc2ccc(Br)cc12`: in assay [1], the GI50 is 28.9 µM and the TGI was > 100 µM.

Consider `COc1cc2c3c(ncc2c(OC)c1OC)-c1cc2c(cc1C3)OCO2`, for which, in assay [1], the GI50 is 26.2 µM and the TGI was 89.8 µM.

For the molecule `CC(C)(C)n1cc(-c2ccnc(NCCCNS(=O)(=O)c3ccc(Br)cc3)c2)c(-c2cccc(O)c2)n1`, in assay [1], the GI50 is 2.48 µM and the TGI was determined as 8.12 µM.

With `COc1ccccc1NC(=O)C1=C(C)NC(C)=C(C(=O)Nc2ccccc2OC)C1c1ccc(N(C)C)cc1`, the TGI in assay [2] was > 100 µM; in assay [3], 55.1 µM; in assay [4] it was 96.8 µM; in assay [5], > 100 µM; in assay [7], 81.1 µM.

As to `COC(=O)[C@]1(C)CCC[C@@]2(C)[C@@H]3C[C@@H]4[C@H]5C[C@@]3(CC[C@@H]21)C[C@@]45C`, the values for the TGI in assay [8] and in assay [1] were 31.8 µM and 62.2 µM, respectively.

Take `COc1ccc(NC(=O)n2nc(/C=C\c3ccc(O)c(OC)c3)cc2/C=C\c2ccc(O)c(OC)c2)cc1`: in assay [1], the GI50 is 3.68 µM and the TGI was 25.8 µM.

`CC[C@@]12C=CCN3CC[C@]4(c5cc(NC(=O)COc6cc(OCC(=O)Nc7cc8c(cc7OC)N(C)[C@H]7[C@@](O)(C(=O)OC)[C@H](OC(C)=O)[C@]9(CC)C=CCN%10CC[C@]87[C@@H]%109)cc7oc(-c8ccccc8)cc(=O)c67)c(OC)cc5N(C)[C@@H]4[C@](O)(C(=O)OC)[C@H]1OC(C)=O)[C@H]32`: in assay [1], the GI50 is 57.5 µM and the TGI was > 100 µM.

For `COc1cc2ncnc3c2cc1OCCCCCN(C)Cc1ccc(Br)cc1N3`, in assay [1], the GI50 is 0.643 µM and 0.446 µM; the TGI is 85.4 µM and 9.5 µM.

Consider `CC12CC=CCC1CCC1C2CCC2(C)C(c3ccc(=O)oc3)CCC12O` (stereo not drawn), for which, in assay [1], the GI50 was 0.23 µM and the TGI was found to be 0.887 µM.

For `CNCCNc1nc2ccccc2c2c(=O)c3cc(F)ccc3sc12`, in assay [1], the GI50 is 1.8 µM and the TGI is 4.12 µM.

`COc1cc2c(c(OC)c1OC)-c1ccc(O)c(=O)cc1[C@@H](NC(C)=O)CC2` showed a TGI in assay [8] of 34.4 µM. In assay [1], the GI50 is 8.84 µM and the TGI is > 100 µM.

With `CCN(CC)CCOc1c(OC)c(Br)cc2c(C)c(C(=O)OC)oc12`, in assay [1], the GI50 was 0.188 µM and the TGI was 0.488 µM.

As to `COC(=O)[C@H]1[C@H]2C[C@@H]3c4[nH]c5cc(OC)ccc5c4CCN3C[C@H]2C[C@@H](OC(=O)/C=C/c2cc(OC)c(OC)c(OC)c2)[C@@H]1OC`, in assay [1], the GI50 is 3.15 µM and the TGI was 9.54 µM.

As to `C[C@]12CC[C@H]3[C@@H](CC[C@]4(O)C[C@@H](O)CC[C@]34CO)[C@@]1(O)CC[C@@H]2C1=CC(=O)OC1`, the TGI in assay [8] is 14.4 µM; in assay [1], 13.9 µM.

For the molecule `COc1cc(/C=C2\CC3C4CC=C5C[C@@H](O)CC[C@]5(C)C4CC[C@]3(C)C2=O)ccc1OCCCn1ccnc1` (stereo partly drawn), in assay [1], the GI50 was 29.3 µM and the TGI is > 100 µM.

Take `Cc1c(C(=O)CC(=O)C(=O)Nc2cc(Cl)ccc2Cl)[n+](=O)c2ccccc2n1[O-]`: the TGI in assay [2] was > 100 µM; in assay [4] it was > 100 µM; in assay [5], 59.1 µM; in assay [6] it was 69.4 µM; in assay [7], > 100 µM.

Consider `COC(=O)[C@H]1N[C@@H](C(=O)OC)C23CCC[C@H]2CC[C@]1(C(OC)OC)C3`, for which the TGI in assay [2], in assay [3], in assay [4], in assay [5], in assay [6] and in assay [7] was > 100 µM in each case.

As for `CN(C)CCCc1c2ccccc2nc2ccc(Cl)cc12`, in assay [1], the TGI was > 100 µM.

Turning to `CCOC(=O)Nc1nc2cc(OCC)ccc2s1`, in assay [1], the GI50 is 35 µM and the TGI is > 100 µM.

For `CC1(O)CCC2(C)C(=O)C1(C)CCC21OCCO1` (stereo not drawn), the TGI in assay [2], in assay [3], in assay [5] and in assay [6] was > 100 µM in each case.

For `COC(=O)c1cc(-c2ccc(OC)cc2)[nH]c1N/N=C/c1c(Cl)cccc1Cl`, in assay [1], the GI50 was 0.505 µM and the TGI is > 31.8 µM.

Regarding `Cn1cc(C2=C(c3cn(C)c4cc(N)ccc34)C(=O)NC2=O)c2ccccc21`, in assay [1], the GI50 is 5.7 µM and the TGI is > 21.6 µM.

With `NC(=O)c1csc(C2CCC(CO)O2)n1` (stereo not drawn), the TGI in assay [2], in assay [4], in assay [5], in assay [6] and in assay [7] was > 100 µM in each case.

As for `CC[C@H](Nc1nc(N)nc(C2CC2)c1C#N)c1nc2cccc(NCc3ccc(C(=O)NO)cc3)c2c(=O)n1-c1ccccc1`, in assay [1], the GI50 was 1.82 µM and the TGI is 5.78 µM.

Consider `Nc1nc(N)nc(CC(=O)O)n1`, for which the TGI in assay [8] and in assay [1] was > 100 µM throughout.

The values are drawn from PubChem BioAssay (NCI).
